Test results from ChEMBL document CHEMBL1143799, “Synthesis and primary cytotoxicity evaluation of new imidazo[2,1-b]thiazole derivatives” (2007).

Key:
Assay type in all cases: functional
KM12 = assay: Growth inhibition of human KM12 cells after 48 hrs by SRB protein assay; conditions: KM12, 48 h
RXF 393 = assay: Growth inhibition of human RXF393 cells after 48 hrs by SRB protein assay; conditions: RXF 393, 48 h, read-out: Log TGI (converted)
HT-29 = assay: Growth inhibition of human HT29 cells after 48 hrs by SRB protein assay; conditions: HT-29, 48 h
SK-MEL-5 = assay: Growth inhibition of human SK-MEL-5 cells after 48 hrs by SRB protein assay; conditions: SK-MEL-5, 48 h
UACC-257 = assay: Growth inhibition of human UACC257 cells after 48 hrs by SRB protein assay; conditions: UACC-257, 48 h
SK-OV-3 = assay: Growth inhibition of human SK-OV-3 cells after 48 hrs by SRB protein assay; conditions: SK-OV-3, 48 h
SW-620 = assay: Growth inhibition of human SW620 cells after 48 hrs by SRB protein assay; conditions: SW-620, 48 h
OVCAR-3 = assay: Growth inhibition of human OVCAR-3 cells after 48 hrs by SRB protein assay; conditions: OVCAR-3, 48 h
NCI-H23 = assay: Growth inhibition of human NCI-H23 cells after 48 hrs by SRB protein assay; conditions: NCI-H23, 48 h
SK-MEL-28 = assay: Growth inhibition of human SK-MEL-28 cells after 48 hrs by SRB protein assay; conditions: SK-MEL-28, 48 h
M14 = assay: Growth inhibition of human M14 cells after 48 hrs by SRB protein assay; conditions: M14, 48 h
SF-539 = assay: Growth inhibition of human SF539 cells after 48 hrs by SRB protein assay; conditions: SF-539, 48 h
HCT-116 = assay: Growth inhibition of human HCT116 cells after 48 hrs by SRB protein assay; conditions: HCT-116, 48 h
NCI-H460 = assay: Growth inhibition of human NCI-H460 cells after 48 hrs by SRB protein assay; conditions: NCI-H460, 48 h
UACC-62 = assay: Growth inhibition of human UACC62 cells after 48 hrs by SRB protein assay; conditions: UACC-62, 48 h
OVCAR-5 = assay: Growth inhibition of human OVCAR5 cells after 48 hrs by SRB protein assay; conditions: OVCAR-5, 48 h
DU-145 = assay: Growth inhibition of human DU145 cells after 48 hrs by SRB protein assay; conditions: DU-145, 48 h
EKVX = assay: Growth inhibition of human EKVX cells after 48 hrs by SRB protein assay
SNB-19 = assay: Growth inhibition of human SNB19 cells after 48 hrs by SRB protein assay; conditions: SNB-19, 48 h
T47D = assay: Growth inhibition of human T47D cells after 48 hrs by SRB protein assay
SN12C = assay: Growth inhibition of human SN12C cells after 48 hrs by SRB protein assay
HCC 2998 = assay: Growth inhibition of human HCC2998 cells after 48 hrs by SRB protein assay; conditions: HCC 2998, 48 h
CAKI-1 = assay: Growth inhibition of human CAKI1 cells after 48 hrs by SRB protein assay; conditions: CAKI-1, 48 h
MDA-MB-435 = assay: Growth inhibition of human MDA-MB-435 cells after 48 hrs by SRB protein assay; conditions: MDA-MB-435, 48 h
Hs-578T = assay: Growth inhibition of human HS578T cells after 48 hrs by SRB protein assay
HOP-62 = assay: Growth inhibition of human HOP62 cells after 48 hrs by SRB protein assay; conditions: HOP-62, 48 h
HOP-92 = assay: Growth inhibition of human HOP92 cells after 48 hrs by SRB protein assay; conditions: HOP-92, 48 h
MCF7 = assay: Growth inhibition of human MCF7 cells after 48 hrs by SRB protein assay; conditions: MCF7, 48 h
SNB-75 = assay: Growth inhibition of human SNB75 cells after 48 hrs by SRB protein assay; conditions: SNB-75, 48 h
PC-3 = assay: Growth inhibition of human PC3 cells after 48 hrs by SRB protein assay; conditions: PC-3, 48 h
CCRF-CEM = assay: Growth inhibition of human CCRF-CEM cells after 48 hrs by SRB protein assay
MDA-MB-231 = assay: Growth inhibition of MDA-MB-231 cells after 48 hrs by SRB protein assay; conditions: Homo sapiens, MDA-MB-231, 48 h
OVCAR-8 = assay: Growth inhibition of human OVCAR8 cells after 48 hrs by SRB protein assay; conditions: OVCAR-8, 48 h
UO-31 = assay: Growth inhibition of human UO31 cells after 48 hrs by SRB protein assay; conditions: UO-31, 48 h
COLO 205 = assay: Growth inhibition of human COLO205 cells after 48 hrs by SRB protein assay; conditions: COLO 205, 48 h
IGROV-1 = assay: Growth inhibition of human IGROV1 cells after 48 hrs by SRB protein assay; conditions: IGROV-1, 48 h
HCT-15 = assay: Growth inhibition of human HCT15 cells after 48 hrs by SRB protein assay; conditions: HCT-15, 48 h
SF-268 = assay: Growth inhibition of human SF268 cells after 48 hrs by SRB protein assay; conditions: SF-268, 48 h
NCI-H522 = assay: Growth inhibition of human NCI-H522 cells after 48 hrs by SRB protein assay; conditions: NCI-H522, 48 h

O=C(Cc1csc2nc(-c3ccc(Br)cc3)cn12)N/N=C/c1ccc(O)cc1 showed a GI50 (KM12) of 17.8 µM, a TGI (KM12; read-out: Log TGI (converted)) of 75.9 µM and a TGI (RXF 393) of 40.7 µM. It also gave a GI50 (HT-29) of 50.1 µM, a TGI (HT-29; read-out: Log TGI (converted)) of over 100 µM and a GI50 (SK-MEL-5) of 7.08 µM. The TGI (SK-MEL-5; read-out: Log TGI (converted)) was 22.4 µM, the GI50 (UACC-257) was 1.51 µM and the TGI (UACC-257; read-out: Log TGI (converted)) was 7.76 µM. It also gave a GI50 (SK-OV-3) of 52.5 µM, a TGI (SK-OV-3; read-out: Log TGI (converted)) of over 100 µM and a GI50 (SW-620) of 31.6 µM. For the same compound, the TGI (SW-620; read-out: Log TGI (converted)) was over 100 µM, the GI50 (OVCAR-3) was 24 µM and the TGI (OVCAR-3; read-out: Log TGI (converted)) was 49 µM. It also gave a GI50 (NCI-H23) of 7.59 µM, a TGI (NCI-H23; read-out: Log TGI (converted)) of 32.4 µM and a GI50 (SK-MEL-28) of 60.3 µM. For the same compound, the TGI (SK-MEL-28; read-out: Log TGI (converted)) was 100 µM, the GI50 (M14) was 10.2 µM and the TGI (M14; read-out: Log TGI (converted)) was 23.4 µM. It also gave a GI50 (SF-539) of 18.2 µM, a TGI (SF-539; read-out: Log TGI (converted)) of 46.8 µM and a GI50 (HCT-116) of 10.5 µM. It also gave a TGI (HCT-116; read-out: Log TGI (converted)) of 24 µM, a GI50 (NCI-H460) of 57.5 µM and a TGI (NCI-H460; read-out: Log TGI (converted)) of over 100 µM. For the same compound, the GI50 (UACC-62) was 9.12 µM, the TGI (UACC-62; read-out: Log TGI (converted)) was 23.4 µM and the GI50 (OVCAR-5) was 27.5 µM. For the same compound, the TGI (OVCAR-5; read-out: Log TGI (converted)) was over 100 µM, the GI50 (DU-145) was 22.4 µM and the TGI (DU-145; read-out: Log TGI (converted)) was 87.1 µM. The GI50 (EKVX) was 11.5 µM, the TGI (EKVX; read-out: Log TGI (converted)) was 66.1 µM and the GI50 (SNB-19) was 57.5 µM. For the same compound, the TGI (SNB-19; read-out: Log TGI (converted)) was over 100 µM, the GI50 (T47D) was 31.6 µM and the TGI (T47D; read-out: Log TGI (converted)) was over 100 µM. It also gave a GI50 (SN12C) of 15.5 µM, a TGI (SN12C; read-out: Log TGI (converted)) of 43.7 µM and a GI50 (HCC 2998) of 14.5 µM. It also gave a TGI (HCC 2998; read-out: Log TGI (converted)) of 29.5 µM, a GI50 (CAKI-1) of 14.8 µM and a TGI (CAKI-1; read-out: Log TGI (converted)) of 49 µM. It also gave a GI50 (MDA-MB-435) of 6.31 µM, a TGI (MDA-MB-435; read-out: Log TGI (converted)) of 24.5 µM and a GI50 (Hs-578T) of 23.4 µM. The TGI (Hs-578T; read-out: Log TGI (converted)) was 93.3 µM, the GI50 (HOP-62) was 18.2 µM and the TGI (HOP-62; read-out: Log TGI (converted)) was 53.7 µM. The GI50 (HOP-92) was 19.1 µM, the TGI (HOP-92; read-out: Log TGI (converted)) was 69.2 µM and the GI50 (MCF7) was 63.1 µM. The TGI (MCF7; read-out: Log TGI (converted)) was over 100 µM, the GI50 (SNB-75) was over 100 µM and the TGI (SNB-75; read-out: Log TGI (converted)) was over 100 µM. For the same compound, the GI50 (PC-3) was under 0.01 µM, the TGI (PC-3; read-out: Log TGI (converted)) was 23.4 µM and the GI50 (CCRF-CEM) was 12.3 µM. The TGI (CCRF-CEM; read-out: Log TGI (converted)) was 79.4 µM, the GI50 (MDA-MB-231) was 10.5 µM and the TGI (MDA-MB-231; read-out: Log TGI (converted)) was 43.7 µM. The GI50 (OVCAR-8) was 7.08 µM, the TGI (OVCAR-8; read-out: Log TGI (converted)) was 25.7 µM and the GI50 (UO-31) was 26.3 µM. For the same compound, the TGI (UO-31; read-out: Log TGI (converted)) was over 100 µM, the GI50 (COLO 205) was 43.7 µM and the TGI (COLO 205; read-out: Log TGI (converted)) was over 100 µM. For the same compound, the GI50 (IGROV-1) was 10.7 µM, the TGI (IGROV-1; read-out: Log TGI (converted)) was 39.8 µM and the GI50 (HCT-15) was 17.8 µM. The TGI (HCT-15; read-out: Log TGI (converted)) was 61.7 µM, the GI50 (SF-268) was over 100 µM and the TGI (SF-268; read-out: Log TGI (converted)) was over 100 µM. The GI50 (NCI-H522) was 10.7 µM and the TGI (NCI-H522; read-out: Log TGI (converted)) was 34.7 µM.
